This test relates to T1, TreS (recombinant trehalose synthase).
T1 construct: pET-22b(+), E. coli BL21(DE3), Ni-NTA; His6 tag kept (C-terminal per Methods, N-terminal with 13 extra residues per Results)
The test can be described thus: HPLC-RID of sugars, Lineweaver-Burk. It counts as biochemical, uncultured bacterium. Particulars: pH 9.0, 45 °C, 30 min, 200 mM sodium phosphate.

Drawing on PMC3797794, “Identification and Characterization of a Novel Trehalose Synthase Gene Derived from Saline-Alkali Soil Metagenomes” (PLoS ONE, 2013), this text covers Km for two molecules.

Broadly, the Km is the substrate concentration at which the rate is half of its maximum. For the molecule `OC[C@H]1O[C@H](O[C@H]2O[C@H](CO)[C@@H](O)[C@H](O)[C@H]2O)[C@H](O)[C@@H](O)[C@@H]1O` [trehalose], the Km was determined as 64 ± 3.5 mM.

Regarding `OC[C@H]1O[C@H](O[C@H]2[C@H](O)[C@@H](O)C(O)O[C@@H]2CO)[C@H](O)[C@@H](O)[C@@H]1O` (some centres unmarked) [maltose], the Michaelis constant (Km) was determined as 9 ± 1.2 mM.
